Where two headings read alike, the source gives them in different places.
What was measured:
HIV-1 = assay: Breakthrough of mutant HIV-1 strains in CEM cell cultures, single drugs and double/triple combinations; type: cell-based
Method: The culture medium consisted of RPMI 1640 containing 10% fetal bovine serum, 2 mM L-glutamine, and 0.075% NaHCO3. The multiplicity of the initial infection was ~1000 times the CCID50 (50% cell culture infective dose). Passages were performed every 3 to 4 days by adding 0.5 to 1.0 ml of the infected culture supernatant to 5 ml of a suspension containing 4×10^5 uninfected CEM cells per ml. Syncytium formation was used as a parameter of virus breakthrough in the cell cultures. In the drug combination experiments, the compounds were combined at the same initial concentrations as used for the two lowest concentrations in the single-drug experiments.
Compound IV, BHAP and TSAO-m^3 T were added to HIV-1-infected CEM cell cultures at 0.04, 0.10 and 0.25 ug/ml (Compound IV and BHAP) or 1.0, 2.5 and 5.0 μg/ml (TSAO-m^3 T). In addition, various double- and triple-drug combinations of Compound IV, BHAP and TSAO-m^3 T were performed, combining these inhibitors at their lowest (0.04 μg/ml) or intermediary (0.1 μg/ml) concentration as used in the single-drug experiments.

HIV-1/B 101Glu = assay: Sensitivity of mutant HIV-1 strain in CEM cell cultures; type: cell-based; conditions: Table 5
Summary of the method: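 Syncytium formation read out after 4 days at 37° C. Cultures: CEM cells, 250,000/ml, infected at 100 50% cell culture infective doses/ml and added to compound dilutions.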

Cc1cn([C@@H]2O[C@H](CO[Si](C)(C)C(C)(C)C)[C@@]3(OS(=O)(=O)C=C3N)[C@H]2O[Si](C)(C)C(C)(C)C)c(=O)n(C)c1=O [TSAO-m^3 T]
> 2.5 µg/mL: EC50 (HIV-1/B 101Glu)
75 percentage of control: HIV-1-induced syncytium formation in CEM cells (HIV-1; single drug 1.0 μg/ml, day 18 post infection) | HIV-1-induced syncytium formation in CEM cells (HIV-1; single drug 2.5 μg/ml, day 18 post infection) | HIV-1-induced syncytium formation in CEM cells (HIV-1; single drug 5.0 μg/ml, day 18 post infection)
14 days: virus breakthrough delayed till day (HIV-1; single drug, higher concentrations)
0 percentage of control: HIV-1-induced syncytium formation in CEM cells (HIV-1; single drug 1.0 μg/ml, day 4 post infection) | HIV-1-induced syncytium formation in CEM cells (HIV-1; single drug 1.0 μg/ml, day 7 post infection) | HIV-1-induced syncytium formation in CEM cells (HIV-1; single drug 1.0 μg/ml, day 11 post infection) | HIV-1-induced syncytium formation in CEM cells (HIV-1; single drug 2.5 μg/ml, day 4 post infection) | HIV-1-induced syncytium formation in CEM cells (HIV-1; single drug 2.5 μg/ml, day 7 post infection) | HIV-1-induced syncytium formation in CEM cells (HIV-1; single drug 2.5 μg/ml, day 11 post infection) | HIV-1-induced syncytium formation in CEM cells (HIV-1; single drug 5.0 μg/ml, day 4 post infection) | HIV-1-induced syncytium formation in CEM cells (HIV-1; single drug 5.0 μg/ml, day 7 post infection) | HIV-1-induced syncytium formation in CEM cells (HIV-1; single drug 5.0 μg/ml, day 11 post infection)
12.5 percentage of control: HIV-1-induced syncytium formation in CEM cells (HIV-1; single drug 1.0 μg/ml, day 14 post infection) | HIV-1-induced syncytium formation in CEM cells (HIV-1; single drug 2.5 μg/ml, day 14 post infection) | HIV-1-induced syncytium formation in CEM cells (HIV-1; single drug 5.0 μg/ml, day 14 post infection)
100 percentage of control: HIV-1-induced syncytium formation in CEM cells (HIV-1; single drug 1.0 μg/ml, day 21 post infection) | HIV-1-induced syncytium formation in CEM cells (HIV-1; single drug 1.0 μg/ml, day 25 post infection) | HIV-1-induced syncytium formation in CEM cells (HIV-1; single drug 1.0 μg/ml, day 28 post infection) | HIV-1-induced syncytium formation in CEM cells (HIV-1; single drug 1.0 μg/ml, day 32 post infection) | HIV-1-induced syncytium formation in CEM cells (HIV-1; single drug 1.0 μg/ml, day 35 post infection) | HIV-1-induced syncytium formation in CEM cells (HIV-1; single drug 1.0 μg/ml, day 39 post infection) | HIV-1-induced syncytium formation in CEM cells (HIV-1; single drug 1.0 μg/ml, day 42 post infection) | HIV-1-induced syncytium formation in CEM cells (HIV-1; single drug 1.0 μg/ml, day 46 post infection) | HIV-1-induced syncytium formation in CEM cells (HIV-1; single drug 1.0 μg/ml, day 49 post infection) | HIV-1-induced syncytium formation in CEM cells (HIV-1; single drug 1.0 μg/ml, day 53 post infection) | HIV-1-induced syncytium formation in CEM cells (HIV-1; single drug 1.0 μg/ml, day 56 post infection) | HIV-1-induced syncytium formation in CEM cells (HIV-1; single drug 1.0 μg/ml, day 60 post infection) | HIV-1-induced syncytium formation in CEM cells (HIV-1; single drug 1.0 μg/ml, day 64 post infection) | HIV-1-induced syncytium formation in CEM cells (HIV-1; single drug 1.0 μg/ml, day 67 post infection) | HIV-1-induced syncytium formation in CEM cells (HIV-1; single drug 1.0 μg/ml, day 71 post infection) | HIV-1-induced syncytium formation in CEM cells (HIV-1; single drug 1.0 μg/ml, day 74 post infection) | HIV-1-induced syncytium formation in CEM cells (HIV-1; single drug 1.0 μg/ml, day 77 post infection) | HIV-1-induced syncytium formation in CEM cells (HIV-1; single drug 2.5 μg/ml, day 21 post infection) | HIV-1-induced syncytium formation in CEM cells (HIV-1; single drug 2.5 μg/ml, day 25 post infection) | HIV-1-induced syncytium formation in CEM cells (HIV-1; single drug 2.5 μg/ml, day 28 post infection) | HIV-1-induced syncytium formation in CEM cells (HIV-1; single drug 2.5 μg/ml, day 32 post infection) | HIV-1-induced syncytium formation in CEM cells (HIV-1; single drug 2.5 μg/ml, day 35 post infection) | HIV-1-induced syncytium formation in CEM cells (HIV-1; single drug 2.5 μg/ml, day 39 post infection) | HIV-1-induced syncytium formation in CEM cells (HIV-1; single drug 2.5 μg/ml, day 42 post infection) | HIV-1-induced syncytium formation in CEM cells (HIV-1; single drug 2.5 μg/ml, day 46 post infection) | HIV-1-induced syncytium formation in CEM cells (HIV-1; single drug 2.5 μg/ml, day 49 post infection) | HIV-1-induced syncytium formation in CEM cells (HIV-1; single drug 2.5 μg/ml, day 53 post infection) | HIV-1-induced syncytium formation in CEM cells (HIV-1; single drug 2.5 μg/ml, day 56 post infection) | HIV-1-induced syncytium formation in CEM cells (HIV-1; single drug 2.5 μg/ml, day 60 post infection) | HIV-1-induced syncytium formation in CEM cells (HIV-1; single drug 2.5 μg/ml, day 64 post infection) | HIV-1-induced syncytium formation in CEM cells (HIV-1; single drug 2.5 μg/ml, day 67 post infection) | HIV-1-induced syncytium formation in CEM cells (HIV-1; single drug 2.5 μg/ml, day 71 post infection) | HIV-1-induced syncytium formation in CEM cells (HIV-1; single drug 2.5 μg/ml, day 74 post infection) | HIV-1-induced syncytium formation in CEM cells (HIV-1; single drug 2.5 μg/ml, day 77 post infection) | HIV-1-induced syncytium formation in CEM cells (HIV-1; single drug 5.0 μg/ml, day 21 post infection) | HIV-1-induced syncytium formation in CEM cells (HIV-1; single drug 5.0 μg/ml, day 25 post infection) | HIV-1-induced syncytium formation in CEM cells (HIV-1; single drug 5.0 μg/ml, day 28 post infection) | HIV-1-induced syncytium formation in CEM cells (HIV-1; single drug 5.0 μg/ml, day 32 post infection) | HIV-1-induced syncytium formation in CEM cells (HIV-1; single drug 5.0 μg/ml, day 35 post infection) | HIV-1-induced syncytium formation in CEM cells (HIV-1; single drug 5.0 μg/ml, day 39 post infection) | HIV-1-induced syncytium formation in CEM cells (HIV-1; single drug 5.0 μg/ml, day 42 post infection) | HIV-1-induced syncytium formation in CEM cells (HIV-1; single drug 5.0 μg/ml, day 46 post infection) | HIV-1-induced syncytium formation in CEM cells (HIV-1; single drug 5.0 μg/ml, day 49 post infection) | HIV-1-induced syncytium formation in CEM cells (HIV-1; single drug 5.0 μg/ml, day 53 post infection) | HIV-1-induced syncytium formation in CEM cells (HIV-1; single drug 5.0 μg/ml, day 56 post infection) | HIV-1-induced syncytium formation in CEM cells (HIV-1; single drug 5.0 μg/ml, day 60 post infection) | HIV-1-induced syncytium formation in CEM cells (HIV-1; single drug 5.0 μg/ml, day 64 post infection) | HIV-1-induced syncytium formation in CEM cells (HIV-1; single drug 5.0 μg/ml, day 67 post infection) | HIV-1-induced syncytium formation in CEM cells (HIV-1; single drug 5.0 μg/ml, day 71 post infection) | HIV-1-induced syncytium formation in CEM cells (HIV-1; single drug 5.0 μg/ml, day 74 post infection) | HIV-1-induced syncytium formation in CEM cells (HIV-1; single drug 5.0 μg/ml, day 77 post infection)

Cc1occc1C(=S)Nc1ccc(Cl)c(C=NOC(C)(C)C)c1 [Compound I]
≥ 1 µg/mL: EC50 (HIV-1/B 101Glu; Human immunodeficiency virus 1, CCRF-CEM, read-out: EC50)

— patent US5968910A, “Compositions containing two or three inhibitors of different HIV reverse transcriptases” (priority 1994, dated 1999)
